Assay results taken from PMC12731536, “Sc(III) Complexes of Pyclen Derivative Ligands as Probes for Hypoxia: Synthesis, Chemical Characterization, ^44Sc‐Radiolabeling, and Preclinical Assessment” (Chemistry (Weinheim an Der Bergstrasse, Germany), 2025).
Like-named read-outs stand apart in the source and are kept apart here.

Legend:
[1] = pH‐potentiometric determination of ligand protonation constants; assay type: physicochemical; details: I = 1.00 M NaCl, T = 25 °C
Method: The equilibrium study of the PC2AM^nBu ligand has been started by determining the protonation constants in 0.15 M and 1.00 M NaCl ionic strength. (As the stability of the Sc(III) complex was determined in 1.00 M ionic strength, we had to perform the pH‐potentiometric titration of ligands using 1.00 M ionic strengths also.) The results of pH‐potentiometric measurement are shown in Table 1, where the corresponding data for 3,9‐PC2A,^[ [42] ^] PCTA ^[ [46] ^] and PC2AM‐NI ligands determined under identical conditions are also presented. Knowledge of the protonation constants defined by Eqn. 1 and 2 are essential for the calculation of the stability constants of the Sc(III) complexes:
(1) PC2AM^nBu^2−+nH^+⇌Hn(PC2AM^nBu)^−2+n (2) βn=HnPC2AM^nBu^−2+n/PC2AM^nBu^2−H^+^n
The protonation constants of the ligands, as well as the concentrations of the ligand stock solutions, were determined by pH‐potentiometric method using a Metrohm 785 DMP Titrino automatic titrator using a Metrohm 6.00234.100 combined glass electrode. The titrations were carried out in the pH range 1.75–11.80 and the pH electrode was calibrated by a two‐point calibration routine with the use of 0.05 M KH‐phthalate (pH = 4.005) and 0.01 M borax (pH = 9.177 buffers. The samples were stirred at 25 °C (±0.1 °C) and N2 gas bubbled into the system to ensure inert conditions and to eliminate the effect of the presence of CO2. For the calculation of [H^+] from the measured pH values, the method proposed by Irving et al. was applied.^[ [61] ^] For this, a 0.01 M HCl solution was titrated with the standardized NaOH solution in the presence of 0.15 M NaCl ionic strength at 25 °C. The differences between the measured (pHread) and calculated pH (‐log[H^+]) values were used to obtain the equilibrium H^+ concentration from the pHmeas values during the titrations. By fitting the resulting titration curves (pH – V (NaOH) data pairs) with the PSEQUAD program, the protonation constants of the ligands were determined.^[ [47] ^] The titration of the [Sc(PC2AM^nBu)]^+ with NaOH was performed with the same method by applying very similar conditions.

[2] = I = 0.15 M NaCl, T = 25 °C; cited from earlier work
[3] = Fluoride binding of [Sc(PC2AM^nBu)]^+ (ternary complex stability), 19F NMR titration; assay type: physicochemical; details: stability constant of the ternary fluoride complex, 19F NMR, pH = 5.2, I = 0.15 M NaCl, 25 °C
Excerpt: Sc(III) is a typical “hard” cation, forming very stable complexes with fluoride anion.^[ [51], [52] ^] […] The formation of the ternary [Sc(PC2AM^nBu)(F)] complex can be followed by […], as two sets of signals (Δδ ∼ 20 Hz) indicate a slow exchange regime on the […] time scale (Figure S16). Measuring the intensities of the free and bound fluoride signals, the stability constant (Eqn. 6) of the [Sc(PC2AM^nBu)(F)] complex (Eqn. 5) can be calculated (Table S1).
(5) [Sc(PC2AM^nBu)]^++F^−⇌[Sc(PC2AM^nBu)(F)] (6) KScLF=ScPC2AM^nBuF/[ScPC2AM^nBu^+]F^−
Table S1. Summary of data used for the calculation of the stability constant, log K[Sc(PC2AM^nBu)(F)] by titration of 0.005M [Sc(PC2AM^nBu)]^+ parent complex with different amounts of F^- (0.005 - 0.01 M concentration range) followed by 376.4 MHz ^19F NMR (I = 0.15 M NaCl, c Sc(PC2AM^nBu) = 5 mM, pH=5.20, T= 298 K).

[4] = Time course of Sc(III) complex formation, 45Sc NMR; assay type: physicochemical; details: ‐log[H^+] = 1.28, 25 °C
Method: The time course of complex formation of PC2AM^nBu and PCTA ligands with Sc(III) ion was investigated by ^45Sc‐NMR under acidic conditions (cSc = cligand = 10 mM and 9.5 mM, respectively, ‐log[H^+] = 1.28). The decrease of the narrow signal of the free Sc(III) ion was monitored as a function of time. […] The kinetic measurements of formation could be seen in Figures S18 and S19. The complexation for the [Sc(PCTA)] chelate at pH = 1.28 and 25 °C took about 300 minutes to reach the equilibrium, whereas for the [Sc(PC2AM^nBu)]^+ complex it took a bit longer time under these conditions. (In order to confirm that the samples reached the equilibrium, we have repeated the ^45Sc NMR study for both samples after a few days when the signal of the free Sc(III) was absent, and only the signals of the complexes were detected.) The detailed study of formation kinetics was not our aim in this project. One can expect that the reaction follows the well‐known mechanisms of M(III) ‐ macrocyclic APC systems ^[ [54] ^]: formation of a protonated intermediate in fast pre‐equilibrium followed by a slow, base‐catalyzed deprotonation/structural rearrangement as a rate‐determining step. The intermediate is named also as “out‐of‐cage complex.”^[ [55] ^] Our experimental curves are likely in accordance with this mechanism. Fitting the measured data for the free Sc(III) signals by a monoexponential function gives the rate constant k obs = (1.04 ± 0 .05) x 10^−4 s^−1 for the [Sc(PC2AM^nBu)]^+ and k obs = (2.51 ± 0.12) x 10^−4 s^−1 for the [Sc(PCTA)] complex. […] The relatively fast complex formation at the given acidic condition is very encouraging for the Sc(III) labeling experiments.
^45Sc NMR measurements (97 MHz) were performed on a Bruker DRX 400 (9.4 T) spectrometer equipped with a Bruker VT‐1000 thermocontroller and a BB inverse z‐gradient probe (5 mm). The kinetic experiments were performed at 25 °C in aqueous solution, using D2O (10% v/v) as a lock solvent. Typical parameters for 45Sc NMR measurements were used: TD = 32k, p1 = 15.6 µs (90°), d 1 = 0.1 s. The formation reactions of the [Sc(PC2AM^nBu)]^+ and [Sc(PCTA)] complexes were monitored by ^45Sc NMR spectroscopy in two sample types: one containing 10.0 mM PC2AM^nBu and ScCl3 / 9.5 mM […] and ScCl3. In both cases, the total acid concentration corresponded to a pH of 1.28. Obtained monoexponential curves (signal area of free Sc(III) vs. time) were fitted using Scientist software ^[ [62] ^] to determine the formation rate.

## O=C(O)CN1CCN(CC(=O)O)Cc2cccc(n2)CN(CC(=O)O)CC1 [PCTA, reference compound]
[1]
  log K 1 ^H: 9.22(6)
  log K 2 ^H: 7.30(8)
  log K 3 ^H: 4.09 (9)
  log K 4 ^H: 1.42(8)
  log β 2 ^H: 16.52
[2]
  log K 1 ^H: 9.97
  log K 2 ^H: 6.73
  log K 3 ^H: 3.22
  log K 4 ^H: 1.40
  log β 2 ^H: 16.70

## CCCCNC(=O)CN1CCN(CC(=O)[O-])Cc2cccc(n2)CN(CC(=O)[O-])CC1.[Sc+3] [[Sc(PC2AM^nBu)]^+]
[3]
  log K ScLF: 2.5(2)
[4]
  half‐life of the complex formation reaction (t 1/2 = ln2 / k obs): 1.83 h
